In ChEMBL document CHEMBL3885881, “DrugMatrix”:

Species: Rattus norvegicus
Test: DrugMatrix - Regimen: Daily Repeat
Assay type: toxicity, organism-based, Sprague-Dawley
Design: regimen Daily Repeat, gender Male, age 6-8 weeks
Details: in vivo, po, route oral GAVAGE, vehicle .5 % CMC; for BASOPHIL / EOSINOPHIL / ERYTHROCYTE COUNT / HEMATOCRIT / HEMOGLOBIN / LEUKOCYTE COUNT / LYMPHOCYTE / MEAN CORPUSCULAR HEMOGLOBIN / MEAN CORPUSCULAR HEMOGLOBIN CONCENTRATION / MEAN CORPUSCULAR VOLUME / MONOCYTE / NEUTROPHIL / PLATELET COUNT: tissue Blood; for ALANINE AMINOTRANSFERASE / ALKALINE PHOSPHATASE / ASPARTATE AMINOTRANSFERASE / BLOOD UREA NITROGEN / CHLORIDE / CHOLESTEROL / CREATINE PHOSPHOKINASE / CREATININE / GLUCOSE / PHOSPHORUS / POTASSIUM / SODIUM / TOTAL PROTEIN: tissue Plasma
[1] = 0 mg/kg, 72 h, dose level Control, time 3 day
[2] = 0 mg/kg, 120 h, dose level Control, time 5 day
[3] = 30 mg/kg, 72 h, dose level Low, time 3 day
[4] = 30 mg/kg, 120 h, dose level Low, time 5 day

For CCN(CC)CCNC(=O)c1cc(Cl)c(N)cc1OC [METOCLOPRAMIDE], the BASOPHIL [1] was 0%, the EOSINOPHIL [1] was 0.4% and the “ERYTHROCYTE COUNT” value [1] was 6.43 x10E6/uL. The HEMATOCRIT [1] was 37.36%, the HEMOGLOBIN [1] was 13.98 G/DL and the “LEUKOCYTE COUNT” value [1] was 13 x10E3/uL. For the same compound, the LYMPHOCYTE [1] was 81.4%, the “MEAN CORPUSCULAR HEMOGLOBIN” value [1] was 21.9 pg and the “MEAN CORPUSCULAR HEMOGLOBIN CONCENTRATION” value [1] was 37.4 G/DL. For the same compound, the “MEAN CORPUSCULAR VOLUME” value [1] was 58.52 fL, the MONOCYTE [1] was 0.4% and the NEUTROPHIL [1] was 18%. The “PLATELET COUNT” value [1] was 1386 x10E3/uL, the “ALANINE AMINOTRANSFERASE” value [1] was 39.33 u/L and the “ALKALINE PHOSPHATASE” value [1] was 283.83 u/L. For the same compound, the “ASPARTATE AMINOTRANSFERASE” value [1] was 69.5 u/L, the “BLOOD UREA NITROGEN” value [1] was 14.83 mg/dL and the CHLORIDE [1] was 107.33 MEQ/L. For the same compound, the CHOLESTEROL [1] was 75.17 mg/dL, the “CREATINE PHOSPHOKINASE” value [1] was 107.67 u/L and the CREATININE [1] was 0.48 mg/dL. For the same compound, the GLUCOSE [1] was 172.5 mg/dL, the PHOSPHORUS [1] was 10.48 mg/dL and the POTASSIUM [1] was 6.9 MEQ/L. The SODIUM [1] was 152.33 MEQ/L, the “TOTAL PROTEIN” value [1] was 5.9 G/DL and the BASOPHIL [2] was 0%. For the same compound, the EOSINOPHIL [2] was 0.4%, the “ERYTHROCYTE COUNT” value [2] was 6.96 x10E6/uL and the HEMATOCRIT [2] was 41.12%. For the same compound, the HEMOGLOBIN [2] was 15.24 G/DL, the “LEUKOCYTE COUNT” value [2] was 11.06 x10E3/uL and the LYMPHOCYTE [2] was 88.6%. The “MEAN CORPUSCULAR HEMOGLOBIN” value [2] was 21.96 pg, the “MEAN CORPUSCULAR HEMOGLOBIN CONCENTRATION” value [2] was 37.1 G/DL and the “MEAN CORPUSCULAR VOLUME” value [2] was 59.12 fL. For the same compound, the MONOCYTE [2] was 0.2%, the NEUTROPHIL [2] was 10.8% and the “PLATELET COUNT” value [2] was 1155.8 x10E3/uL. The “ALANINE AMINOTRANSFERASE” value [2] was 36.33 u/L, the “ALKALINE PHOSPHATASE” value [2] was 340.33 u/L and the “ASPARTATE AMINOTRANSFERASE” value [2] was 68.33 u/L. The “BLOOD UREA NITROGEN” value [2] was 15 mg/dL, the CHLORIDE [2] was 108.17 MEQ/L and the CHOLESTEROL [2] was 74.67 mg/dL. The “CREATINE PHOSPHOKINASE” value [2] was 110.67 u/L, the CREATININE [2] was 0.47 mg/dL and the GLUCOSE [2] was 171.33 mg/dL. The PHOSPHORUS [2] was 10.05 mg/dL, the POTASSIUM [2] was 6.7 MEQ/L and the SODIUM [2] was 155.5 MEQ/L. For the same compound, the “TOTAL PROTEIN” value [2] was 6.33 G/DL, the BASOPHIL [3] was 0% and the EOSINOPHIL [3] was 0%. The “ERYTHROCYTE COUNT” value [3] was 6.75 x10E6/uL, the HEMATOCRIT [3] was 41.55% and the HEMOGLOBIN [3] was 15.45 G/DL. For the same compound, the “LEUKOCYTE COUNT” value [3] was 12.45 x10E3/uL, the LYMPHOCYTE [3] was 81% and the “MEAN CORPUSCULAR HEMOGLOBIN” value [3] was 22.95 pg. For the same compound, the “MEAN CORPUSCULAR VOLUME” value [3] was 61.7 fL, the MONOCYTE [3] was 0% and the NEUTROPHIL [3] was 19%. For the same compound, the “PLATELET COUNT” value [3] was 1187 x10E3/uL, the “ALANINE AMINOTRANSFERASE” value [3] was 40.67 u/L and the “ALKALINE PHOSPHATASE” value [3] was 299.33 u/L. The “ASPARTATE AMINOTRANSFERASE” value [3] was 95.67 u/L, the “BLOOD UREA NITROGEN” value [3] was 12.33 mg/dL and the CHLORIDE [3] was 107.33 MEQ/L. The CHOLESTEROL [3] was 78.67 mg/dL, the “CREATINE PHOSPHOKINASE” value [3] was 421.67 u/L and the CREATININE [3] was 0.77 mg/dL. For the same compound, the GLUCOSE [3] was 175.67 mg/dL, the PHOSPHORUS [3] was 11.53 mg/dL and the POTASSIUM [3] was 7.6 MEQ/L. The SODIUM [3] was 150.67 MEQ/L, the “TOTAL PROTEIN” value [3] was 6.13 G/DL and the BASOPHIL [4] was 0%. For the same compound, the EOSINOPHIL [4] was 0%, the “ERYTHROCYTE COUNT” value [4] was 7 x10E6/uL and the HEMATOCRIT [4] was 41.57%. The HEMOGLOBIN [4] was 15.33 G/DL, the “LEUKOCYTE COUNT” value [4] was 13.57 x10E3/uL and the LYMPHOCYTE [4] was 91%. The “MEAN CORPUSCULAR HEMOGLOBIN” value [4] was 21.93 pg, the “MEAN CORPUSCULAR HEMOGLOBIN CONCENTRATION” value [4] was 36.87 G/DL and the “MEAN CORPUSCULAR VOLUME” value [4] was 59.4 fL. For the same compound, the MONOCYTE [4] was 0.33%, the NEUTROPHIL [4] was 8.67% and the “PLATELET COUNT” value [4] was 1231.67 x10E3/uL. The “ALANINE AMINOTRANSFERASE” value [4] was 41 u/L, the “ALKALINE PHOSPHATASE” value [4] was 236.67 u/L and the “ASPARTATE AMINOTRANSFERASE” value [4] was 70.33 u/L. For the same compound, the “BLOOD UREA NITROGEN” value [4] was 14.67 mg/dL, the CHLORIDE [4] was 104.33 MEQ/L and the CHOLESTEROL [4] was 63.33 mg/dL. The “CREATINE PHOSPHOKINASE” value [4] was 157 u/L, the CREATININE [4] was 0.5 mg/dL and the GLUCOSE [4] was 156.33 mg/dL. For the same compound, the PHOSPHORUS [4] was 9.97 mg/dL, the POTASSIUM [4] was 6.37 MEQ/L and the SODIUM [4] was 151.67 MEQ/L. For the same compound, the “TOTAL PROTEIN” value [4] was 6.23 G/DL.
